# Laboratory results published in ChEMBL document CHEMBL1201862, “PubChem BioAssay data set” (2004).
# The source made the active and inactive calls.
# Assays:
# [1] = P. falciparum Dd2 growth inhibitors, dose response, SYBR Green, cherry-picked samples (AID 1159567); type: functional, cell-based
# [2] = biological target: T1, Carboxy-terminal domain RNA polymerase II polypeptide A small phosphatase 1 (Homo sapiens, UniProt Q9GZU7); assay: inhibitors of CTDSP1, concentration-response testing, biochemical assay, absorbance-based, actives from ultra-high-throughput screening (AID 540297); type: functional
# T1 sequence (Q9GZU7 whole entry): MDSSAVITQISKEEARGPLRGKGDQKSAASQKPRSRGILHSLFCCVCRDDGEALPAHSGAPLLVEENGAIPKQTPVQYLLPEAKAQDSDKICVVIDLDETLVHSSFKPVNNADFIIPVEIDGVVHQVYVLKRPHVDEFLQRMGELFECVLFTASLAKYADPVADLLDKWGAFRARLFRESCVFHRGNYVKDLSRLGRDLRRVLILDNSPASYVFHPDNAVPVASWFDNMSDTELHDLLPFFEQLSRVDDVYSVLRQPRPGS
# [3] = biological target: T2, Heat shock factor protein 1 (Mus musculus, UniProt P38532); assay: HSF1 potentiators in luciferase reporter cells, confirmation, cell-based, NIH3T3, luminescence, dose retest (AID 435004); type: functional;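 further: stress induced by proteasome inhibitor MG132 added 30 min after compound; luciferase reporter driven by HSF1 response element in NIH3T3 cells; actives raise luminescence as potentiators of the MG132 stress response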
# T2 sequence (P38532 whole entry): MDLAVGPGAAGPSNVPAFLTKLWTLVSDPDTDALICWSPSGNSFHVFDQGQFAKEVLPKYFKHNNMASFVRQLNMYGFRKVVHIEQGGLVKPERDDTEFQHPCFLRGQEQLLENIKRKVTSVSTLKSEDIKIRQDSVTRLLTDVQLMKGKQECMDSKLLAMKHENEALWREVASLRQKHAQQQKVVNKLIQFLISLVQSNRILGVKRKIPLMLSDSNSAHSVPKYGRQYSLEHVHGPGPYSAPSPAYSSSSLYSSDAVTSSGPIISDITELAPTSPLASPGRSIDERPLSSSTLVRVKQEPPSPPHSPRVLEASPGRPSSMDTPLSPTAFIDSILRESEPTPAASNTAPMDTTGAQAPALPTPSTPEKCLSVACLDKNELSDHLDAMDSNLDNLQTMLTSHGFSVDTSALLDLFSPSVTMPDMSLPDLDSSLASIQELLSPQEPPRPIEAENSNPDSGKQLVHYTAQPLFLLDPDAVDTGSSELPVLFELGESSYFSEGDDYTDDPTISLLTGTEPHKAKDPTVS
# [4] = C. albicans growth with fluconazole, confirmation, fluorescence, retest (AID 2467); type: functional, cell-based
# [5] = inhibitors of intracellular T. cruzi replication, confirmation, NIH3T3 host cells, beta-gal luminescence (AID 2044); type: functional, cell-based;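 further: intracellular parasites grown in NIH/3T3 mouse fibroblasts as host cells; luminescent beta-galactosidase reporter signal from transgenic T. cruzi replicating inside host cells; inhibitors lower the luminescence signal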
# [6] = NIH-3T3 fibroblast cytotoxicity, dose response, cytotoxicity control, cell-based, fluorescence, Alamar Blue, secondary assay (AID 2327); type: functional;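 further: NIH-3T3 mouse fibroblasts cultured with fluconazole at 8 µg/mL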
# [7] = cytotoxicity toward NIH3T3 fibroblasts, dose response, counter-screen, cell-based, ATP luminescence, mouse fibroblasts (AID 2010); type: functional;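 further: cells exposed to compound for about 90 hours before reading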
# Protein RecA = biological target: T3, Protein RecA (Mycobacterium tuberculosis, UniProt P9WHJ3); assay: Fluorescence Cell-Free Homogeneous Dose Retest to Identify Inhibitors of RecA-Intein Splicing Activity. [Related pubchem assays (depositor defined):AID2097, AID2223, AID489010, AID492950]; type: functional
# T3 sequence (P9WHJ3 whole entry): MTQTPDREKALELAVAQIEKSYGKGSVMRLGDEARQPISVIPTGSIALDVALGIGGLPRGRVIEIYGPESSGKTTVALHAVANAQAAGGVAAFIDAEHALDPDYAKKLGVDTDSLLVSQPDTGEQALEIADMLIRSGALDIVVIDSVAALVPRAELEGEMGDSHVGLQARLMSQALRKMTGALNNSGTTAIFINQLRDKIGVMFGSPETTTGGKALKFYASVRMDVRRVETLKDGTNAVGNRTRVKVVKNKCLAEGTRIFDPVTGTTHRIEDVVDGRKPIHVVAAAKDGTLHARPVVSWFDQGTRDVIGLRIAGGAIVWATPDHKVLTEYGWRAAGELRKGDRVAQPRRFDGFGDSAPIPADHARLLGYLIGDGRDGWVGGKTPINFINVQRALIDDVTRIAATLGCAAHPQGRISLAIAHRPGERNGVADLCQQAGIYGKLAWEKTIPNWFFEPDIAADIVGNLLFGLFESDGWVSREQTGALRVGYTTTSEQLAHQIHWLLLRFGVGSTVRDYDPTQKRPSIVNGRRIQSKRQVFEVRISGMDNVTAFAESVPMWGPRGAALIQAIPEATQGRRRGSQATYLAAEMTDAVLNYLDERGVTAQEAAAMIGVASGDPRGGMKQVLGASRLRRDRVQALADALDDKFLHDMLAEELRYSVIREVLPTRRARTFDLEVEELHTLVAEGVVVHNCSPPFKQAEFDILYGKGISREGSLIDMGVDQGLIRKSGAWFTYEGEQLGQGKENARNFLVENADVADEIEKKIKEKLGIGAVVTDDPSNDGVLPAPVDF
# [8] = biological target: T4, Replicative DNA helicase DnaB (Mycobacterium tuberculosis, UniProt P9WMR3); assay: DnaB intein splicing inhibitors, dose response, biochemical, cell-free fluorescence (AID 449749); type: functional
# T4 sequence (P9WMR3 whole entry): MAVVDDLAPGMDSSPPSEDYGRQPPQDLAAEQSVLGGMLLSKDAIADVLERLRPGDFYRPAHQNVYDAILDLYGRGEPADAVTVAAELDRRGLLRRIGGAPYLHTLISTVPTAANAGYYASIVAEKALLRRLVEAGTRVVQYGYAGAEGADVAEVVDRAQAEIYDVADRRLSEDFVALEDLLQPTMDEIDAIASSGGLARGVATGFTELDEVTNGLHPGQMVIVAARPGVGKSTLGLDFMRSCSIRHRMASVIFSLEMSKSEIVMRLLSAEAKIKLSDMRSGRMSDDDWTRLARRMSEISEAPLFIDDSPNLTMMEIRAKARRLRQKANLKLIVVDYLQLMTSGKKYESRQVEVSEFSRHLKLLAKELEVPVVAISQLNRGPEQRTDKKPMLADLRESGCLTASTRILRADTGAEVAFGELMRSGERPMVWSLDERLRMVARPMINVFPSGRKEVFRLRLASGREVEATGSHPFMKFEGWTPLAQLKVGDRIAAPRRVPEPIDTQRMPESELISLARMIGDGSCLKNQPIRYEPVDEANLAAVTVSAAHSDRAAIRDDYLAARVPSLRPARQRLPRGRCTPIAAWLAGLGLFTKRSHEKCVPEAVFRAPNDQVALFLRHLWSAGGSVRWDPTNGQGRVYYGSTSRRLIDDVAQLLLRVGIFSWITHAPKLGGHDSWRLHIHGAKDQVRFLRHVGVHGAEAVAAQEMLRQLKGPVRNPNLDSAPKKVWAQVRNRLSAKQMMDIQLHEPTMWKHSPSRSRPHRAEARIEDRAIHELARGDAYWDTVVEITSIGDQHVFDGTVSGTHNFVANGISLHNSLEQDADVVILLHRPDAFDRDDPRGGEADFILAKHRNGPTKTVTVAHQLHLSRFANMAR
# [9] = cytotoxicity toward DRD oncogenic fibroblasts, dose response, cell-based, non-viral oncogenic, luminescence (AID 1934); type: functional; details: Homo sapiens
# BJ [10] = assay: cytotoxicity toward BJ-TERT fibroblasts, dose response, cell-based, RAS-independent, luminescence (AID 1933); type: functional; details: Homo sapiens
# BJ [11] = assay: cells; type: functional, cell-based; details: Homo sapiens
# BJ [12] = assay: cytotoxicity toward BJ-TERT-LT-ST fibroblasts, dose response, cell-based, RAS-independent, luminescence (AID 1935); type: functional; details: Homo sapiens;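 further: BJ fibroblasts immortalized with TERT plus LT and ST oncogenes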
# [13] = Shn3 3'UTR reporter inhibitors, dose response, cell-based, Clone20 osteoblasts, firefly luciferase, cherry-picked (AID 624132); type: functional;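 further: firefly luciferase luminescence from reporter carrying the Shn3 3'UTR in osteoblasts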
# [14] = HepG2 cell cytotoxicity, dose response, cytotoxicity control for Shn3 inhibitor project, CellTiter-Glo, cherry-picked (AID 624134); type: functional, cell-based
# [15] = control 3'UTR Renilla luciferase suppression, dose response, counter-screen for Shn3 inhibitor project, cell-based, Clone20-Shn3RL, cherry-picked (AID 624133); type: functional
# [16] = Luminescence Cell-Based Dose Confirmation HTS to Identify Activators of 5'UTR Stem-Loop Driven Alpha-Synuclein mRNA Translation in H4 Neuroglioblastoma Cells. [Related pubchem assays: 1829 (Project Summary), 1814 (Primary HTS)]; type: functional
# [17] = Luminescence Cell-Based Dose Response HTS to Identify Activators of Luciferase Translation or Activity in H4 […] Cells. [Related pubchem assays: 1829 (Project Summary), 1814 (Primary HTS)]; type: functional
# H4 = assay: Luminescence Cell-Based Dose Response HTS to Identify Activators of 5'UTR Stem-Loop Driven Prion Protein mRNA Translation in H4 Neuroglioblastoma Cells. [Related pubchem assays: 1829 (Project Summary), 1814 (Primary HTS)]; type: functional; details: Homo sapiens
# Cytochrome P450 2D6 = Cytochrome P450 2D6 (Homo sapiens, UniProt P10635);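 further: CYP2D6 member of a cytochrome P450 panel assay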
# Chain of Cytochrome P450 2D6 (P10635 whole entry): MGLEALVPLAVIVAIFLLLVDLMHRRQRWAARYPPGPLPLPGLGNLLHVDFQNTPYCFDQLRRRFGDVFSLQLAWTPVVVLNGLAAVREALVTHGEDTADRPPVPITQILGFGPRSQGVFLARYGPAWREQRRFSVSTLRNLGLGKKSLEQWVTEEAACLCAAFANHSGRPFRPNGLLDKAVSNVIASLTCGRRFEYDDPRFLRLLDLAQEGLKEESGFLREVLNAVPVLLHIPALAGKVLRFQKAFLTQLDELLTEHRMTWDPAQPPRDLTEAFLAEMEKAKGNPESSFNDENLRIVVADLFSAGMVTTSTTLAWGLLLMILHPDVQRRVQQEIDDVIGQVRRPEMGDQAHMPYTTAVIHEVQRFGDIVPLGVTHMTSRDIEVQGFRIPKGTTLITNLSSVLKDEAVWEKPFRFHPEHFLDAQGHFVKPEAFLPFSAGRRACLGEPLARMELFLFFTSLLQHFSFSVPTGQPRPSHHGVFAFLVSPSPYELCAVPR
compound,measurement,setting,value
O=C(c1ccc(F)cc1)N1CC(=O)N2[C@H](CO)[C@@H](c3ccc(C#Cc4ccc(F)cc4)cc3)[C@@H]2C1,AC50,[1],5.03 µM (active)
CC(O)/C=C/c1cccc[n+]1C (stereo unspecified),IC50,[2],12.2 µM (active)
COc1cc(NC(=O)Cc2cccs2)ccc1-n1cnnn1,EC50,[3],> 260 µM (inactive)
O=C1CCCN1CCCNc1c([N+](=O)[O-])nn(-c2ccc(Cl)cc2)[n+]1[O-],EC50,[4],> 38 µM (not active)
same,EC50,[5],0.562 µM (active)
same,EC50,[6],17 µM (active)
same,EC50,[3],26.5 µM (active)
same,EC50,[7],> 60 µM (inconclusive)
C/C(CC(=O)Nc1cccnc1)=N\NC(=O)c1ccc([N+](=O)[O-])c(Cl)c1,EC50,Protein RecA,4.18 µM (active)
same,AC50,[8],20.4 µM (active)
Clc1ccc(SCc2csc(N3CCOCC3)n2)cc1,EC50,[3],51.8 µM (active)
COc1ccc2c3c([nH]c2c1)[C@H](CO)N(C(=O)Nc1ccc(F)cc1)CC31CCN(C(=O)c2ccccn2)CC1,AC50,[1],12.4 µM (active)
C/C=C/c1ccc2c(c1)[C@@H]1[C@@H](CCN1C(=O)C1CCCC1)[C@H](CO)N2,AC50,[1],12.7 µM (active)
Cc1cc(C)c2nc3sc(C(=O)N4CCOCC4)c(N)c3cc2c1,EC50,[9],2.62 µM (active)
same,EC50,BJ [10],2.52 µM (active)
same,EC50,BJ [11],2.64 µM (active)
same,EC50,BJ [12],26 µM (active)
O=C(COc1ccc(-n2cnnn2)cc1)Nc1cccc(Cl)c1Cl,IC50,[2],6.36 µM (active)
CCC1=Nc2cc(C(=O)O)ccc2Sc2ccc(Cl)cc21,EC50,[9],> 150 µM (not active)
same,EC50,BJ [10],> 150 µM (not active)
same,EC50,BJ [11],> 150 µM (not active)
same,EC50,BJ [12],> 150 µM (not active)
CCCN1C[C@@H](C)[C@H](OC)CN(C)C(=O)c2ccc(NC(=O)c3ccc4c(c3)OCO4)cc2OC[C@H]1C,AC50,[1],3.45 µM (active)
Cn1c(SCC(=O)NC(=O)NCc2ccco2)nnc1-c1ccccc1,IC50,[2],6.39 µM (active)
O=C(N/N=C/c1ccc(OC(=O)c2cccs2)cc1)c1ccc(F)cc1,IC50,[2],> 80 µM (inactive)
c1ccc(CN2C[C@@H]3N[C@H](C2)[C@H]3c2ccc(-c3ccncc3)cc2)cc1,AC50,[1],9.92 µM (active)
CN(C)C1=NC[C@H](Cc2ccccc2)N1CCCCc1ccccc1,AC50,[13],8.01 µM (active)
same,AC50,[14],58.9 µM (active)
same,AC50,[15],4.5 µM (active)
CC(C)Oc1cccc(C(=O)C2CCCN(C(=O)c3csnn3)C2)c1 (stereo unspecified),EC50,Protein RecA,> 380 µM (inactive)
same,AC50,[8],> 380 µM (inactive)
Cc1ccc(-n2nc(C)c3c2OC(N)=C(C#N)C3c2ccc(F)cc2)cc1 (stereo unspecified),EC50,[16],> 120 µM (not active)
same,EC50,Protein RecA,6.09 µM (active)
same,EC50,[17],> 120 µM (not active)
same,EC50,H4,> 120 µM (not active)
same,AC50,[8],14.2 µM (active)
Fc1ccc(NC(S)=Nc2cc(Cl)ccc2Cl)cc1,EC50,[3],> 260 µM (inactive)
CCCn1c(SCC(=O)c2cc(OC)ccc2OC)nnc1C(C)C,EC50,[3],62.4 µM (active)
CC1CCC(NC(=O)Cn2c(=O)oc3cc(S(=O)(=O)N4CCCC4)ccc32)CC1 (stereo unspecified),IC50,[2],25.5 µM (active)
Cc1ccc(NC(=O)CN(C)C(=O)COc2cc(F)ccc2[N+](=O)[O-])cc1,AC50,[14],> 70 µM (inactive)
same,AC50,[15],16.2 µM (active)
CCOC(=O)c1c(NC(=O)C2c3ccccc3Oc3ccccc32)sc(C(C)=O)c1C,AC50,[13],4.67 µM (active)
same,AC50,[14],61.5 µM (active)
same,AC50,[15],13.6 µM (active)
COc1ccc(C(=O)C2C(c3ccc(-c4ccccc4[N+](=O)[O-])o3)NC(=O)NC2(O)C(F)(F)F)cc1 (stereo unspecified),EC50,Protein RecA,21.5 µM (active)
same,AC50,[8],14.6 µM (active)
S=C(Nc1ccccc1)Nc1ccc(Cl)cn1,EC50,[3],> 260 µM (inactive)
CC(C)C[C@H]1CNC(=S)N1CC1CCN(CC2CCC(C(C)(C)C)CC2)CC1 (stereo partly specified),AC50,[13],4.05 µM (active)
same,AC50,[14],21.5 µM (active)
same,AC50,[15],4.48 µM (active)
Cc1nn(-c2ccccc2)c2c1C(c1ccco1)C(C#N)=C(N)O2 (stereo unspecified),EC50,Protein RecA,4.03 µM (active)
same,AC50,[8],5.88 µM (active)
CCCc1n(CC(O)COC2CCCCC2)c2ccccc2[n+]1C (stereo unspecified),IC50,[2],14.3 µM (active)
Nc1nc(Br)c2c(F)cccc2c1-c1ccc(Cl)cc1,AC50,Cytochrome P450 2D6,3.16 µM (inconclusive)
same,EC50,[3],> 260 µM (inactive)
CCOc1cc(/C=N/NC(=O)CSc2nnc(C)s2)ccc1OCc1ccccc1Cl,IC50,[2],10.1 µM (active)
CCOC(=O)CSCC(=O)N1N=C(c2cccs2)CC1c1ccc(F)cc1 (stereo unspecified),EC50,Protein RecA,15.1 µM (active)
same,AC50,[8],17.7 µM (active)
Cc1ccc(NC(=O)c2cnc(SCC(=O)NCC3CCCO3)n(C)c2=O)cc1 (stereo unspecified),EC50,Protein RecA,30.9 µM (active)
same,AC50,[8],10.1 µM (active)
COc1ccc(NC(=O)N(C)C[C@H]2Oc3ccc(NC(=O)Nc4ccc(C(F)(F)F)cc4)cc3CC(=O)N([C@H](C)CO)C[C@@H]2C)cc1,AC50,[1],3.41 µM (active)
